Values quoted from earlier work, collected in patent US20040115234A1, “Cosmetic composition” (priority 2002, published 2004).

Assays:
[1] = system: eyelashes; conditions: Latanoprost at 0.005% by weight; clinical studies over up to 12 months; % of the subjects tested

## CC(C)OC(=O)CCC/C=C\C[C@@H]1[C@@H](CC[C@@H](O)CCc2ccccc2)[C@H](O)C[C@@H]1O [Latanoprost, isopropyl-(Z)-7[(1R, 2R, 3R, 5S)3,5-dihydroxy-2-[(3R)-3-hydroxy-5-phenylpentyl]cyclopentyl]-5-heptenoate]
[1]
  subjects with induced change in color of eyelashes: 16.5%
  subjects with induced change in density of eyelashes: 22.2%
  subjects with induced change in length of eyelashes: 25.8%
  subjects with induced change in thickness of eyelashes: 17.5%
other
  solubility in water: limited solubility in water
